Consider 11 molecules from ChEMBL document CHEMBL5291721, “A preclinical secondary pharmacology resource illuminates target-adverse drug reaction associations of marketed drugs” (Nat Commun, 2023).

Among the targets are Adenosine receptor A2a (Homo sapiens, UniProt P29274); Melanocortin receptor 3 (Homo sapiens, UniProt P41968); Motilin receptor (Homo sapiens, UniProt O43193).
Test [1] addresses Beta-2 adrenergic receptor (Homo sapiens, UniProt P07550).
The next test deals with T1, B2 bradykinin receptor (Homo sapiens, UniProt P30411).
T1 sequence (P30411 whole entry): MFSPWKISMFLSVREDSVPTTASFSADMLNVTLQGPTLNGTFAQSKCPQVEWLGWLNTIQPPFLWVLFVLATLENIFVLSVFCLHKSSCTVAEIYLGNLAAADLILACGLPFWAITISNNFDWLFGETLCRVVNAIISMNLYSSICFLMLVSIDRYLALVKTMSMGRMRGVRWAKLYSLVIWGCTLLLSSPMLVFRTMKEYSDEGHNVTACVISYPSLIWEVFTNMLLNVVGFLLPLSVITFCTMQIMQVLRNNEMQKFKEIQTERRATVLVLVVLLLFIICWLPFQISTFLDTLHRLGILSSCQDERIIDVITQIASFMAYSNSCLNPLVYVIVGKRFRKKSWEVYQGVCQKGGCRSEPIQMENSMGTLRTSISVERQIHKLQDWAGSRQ

Test [2] addresses Neuronal acetylcholine receptor subunit alpha-4 (Homo sapiens, UniProt P43681).
A further test concerns the target T2, Endothelin-1 receptor (Homo sapiens, UniProt P25101).
T2 sequence (P25101 whole entry): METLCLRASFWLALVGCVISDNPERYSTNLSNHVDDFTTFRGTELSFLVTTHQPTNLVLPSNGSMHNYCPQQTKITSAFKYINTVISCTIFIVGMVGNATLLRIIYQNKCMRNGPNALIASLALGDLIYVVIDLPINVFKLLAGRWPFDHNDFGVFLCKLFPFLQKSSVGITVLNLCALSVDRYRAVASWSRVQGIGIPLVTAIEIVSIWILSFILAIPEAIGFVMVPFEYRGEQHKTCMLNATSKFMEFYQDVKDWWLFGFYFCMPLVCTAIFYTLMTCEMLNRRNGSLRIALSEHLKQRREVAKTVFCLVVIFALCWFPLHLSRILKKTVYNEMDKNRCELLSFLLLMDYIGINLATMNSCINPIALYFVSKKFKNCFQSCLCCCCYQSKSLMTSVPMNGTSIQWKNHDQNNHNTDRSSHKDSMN

Another test concerns the target T3, Glucocorticoid receptor (Homo sapiens, UniProt P04150).
T3 sequence (P04150 whole entry): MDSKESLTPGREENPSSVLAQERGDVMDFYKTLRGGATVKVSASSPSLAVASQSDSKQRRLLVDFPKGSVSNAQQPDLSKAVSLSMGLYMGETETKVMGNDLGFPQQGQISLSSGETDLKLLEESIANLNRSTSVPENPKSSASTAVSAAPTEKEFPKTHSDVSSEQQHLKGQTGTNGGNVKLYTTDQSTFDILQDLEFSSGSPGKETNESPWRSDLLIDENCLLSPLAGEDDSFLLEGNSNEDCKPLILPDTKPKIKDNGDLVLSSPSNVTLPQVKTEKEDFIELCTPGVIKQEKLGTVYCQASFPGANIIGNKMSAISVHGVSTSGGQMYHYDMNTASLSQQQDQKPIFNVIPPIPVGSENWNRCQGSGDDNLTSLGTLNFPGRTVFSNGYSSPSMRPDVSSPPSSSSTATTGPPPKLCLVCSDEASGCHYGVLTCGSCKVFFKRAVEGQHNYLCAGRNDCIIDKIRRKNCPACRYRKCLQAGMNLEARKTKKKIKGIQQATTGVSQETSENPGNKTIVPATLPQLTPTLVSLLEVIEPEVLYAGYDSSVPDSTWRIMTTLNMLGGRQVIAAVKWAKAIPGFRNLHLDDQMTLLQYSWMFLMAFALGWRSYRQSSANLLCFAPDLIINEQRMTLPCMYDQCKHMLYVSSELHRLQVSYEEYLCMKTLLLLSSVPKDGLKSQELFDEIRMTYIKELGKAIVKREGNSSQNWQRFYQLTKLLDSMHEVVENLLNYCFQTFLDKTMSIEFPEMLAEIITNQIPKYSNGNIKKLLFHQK

Test [3] deals with Delta-type opioid receptor (Homo sapiens, UniProt P41143).
Chain of Delta-type opioid receptor (P41143 whole entry): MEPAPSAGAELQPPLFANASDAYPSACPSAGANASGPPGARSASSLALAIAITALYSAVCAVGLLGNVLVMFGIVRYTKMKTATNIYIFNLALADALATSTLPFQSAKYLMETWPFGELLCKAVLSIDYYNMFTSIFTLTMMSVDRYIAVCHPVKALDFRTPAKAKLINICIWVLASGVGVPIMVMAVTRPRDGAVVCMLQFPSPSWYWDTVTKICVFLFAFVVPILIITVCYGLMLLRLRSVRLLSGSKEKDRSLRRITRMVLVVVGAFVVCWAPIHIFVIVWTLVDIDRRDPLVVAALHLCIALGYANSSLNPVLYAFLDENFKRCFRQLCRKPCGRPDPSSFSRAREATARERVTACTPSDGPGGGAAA
The target in another test is T4, Thromboxane A2 receptor (Homo sapiens, UniProt P21731).
T4 sequence (P21731 whole entry): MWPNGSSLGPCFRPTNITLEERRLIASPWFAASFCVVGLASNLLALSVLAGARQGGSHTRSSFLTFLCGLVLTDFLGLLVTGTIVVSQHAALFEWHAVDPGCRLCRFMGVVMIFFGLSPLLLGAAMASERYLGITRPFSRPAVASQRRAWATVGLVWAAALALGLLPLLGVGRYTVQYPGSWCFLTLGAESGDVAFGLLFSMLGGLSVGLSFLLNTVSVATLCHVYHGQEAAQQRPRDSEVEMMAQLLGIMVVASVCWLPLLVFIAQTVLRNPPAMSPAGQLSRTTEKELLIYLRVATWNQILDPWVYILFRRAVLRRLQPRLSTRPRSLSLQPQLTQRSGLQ

Test [4] concerns the target T5, Amine oxidase [flavin-containing] A (Homo sapiens, UniProt P21397).
T5 sequence (P21397 whole entry): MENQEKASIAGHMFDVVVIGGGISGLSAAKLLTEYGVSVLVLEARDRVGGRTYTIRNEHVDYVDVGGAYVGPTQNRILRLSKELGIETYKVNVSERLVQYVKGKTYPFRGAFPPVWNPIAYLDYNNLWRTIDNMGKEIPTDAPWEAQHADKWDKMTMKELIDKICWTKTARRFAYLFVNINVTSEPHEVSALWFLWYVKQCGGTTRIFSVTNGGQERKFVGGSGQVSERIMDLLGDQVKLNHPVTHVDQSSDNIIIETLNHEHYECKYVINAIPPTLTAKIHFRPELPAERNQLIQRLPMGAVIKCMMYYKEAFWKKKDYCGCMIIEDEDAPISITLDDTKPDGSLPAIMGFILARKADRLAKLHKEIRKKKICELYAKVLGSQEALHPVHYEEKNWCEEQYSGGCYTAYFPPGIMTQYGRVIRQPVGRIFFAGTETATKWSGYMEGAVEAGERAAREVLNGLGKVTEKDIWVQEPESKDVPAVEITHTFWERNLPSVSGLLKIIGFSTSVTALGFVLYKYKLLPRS
The format is functional.
Also: assay procedure not described here.

Chain of Motilin receptor (O43193 whole entry): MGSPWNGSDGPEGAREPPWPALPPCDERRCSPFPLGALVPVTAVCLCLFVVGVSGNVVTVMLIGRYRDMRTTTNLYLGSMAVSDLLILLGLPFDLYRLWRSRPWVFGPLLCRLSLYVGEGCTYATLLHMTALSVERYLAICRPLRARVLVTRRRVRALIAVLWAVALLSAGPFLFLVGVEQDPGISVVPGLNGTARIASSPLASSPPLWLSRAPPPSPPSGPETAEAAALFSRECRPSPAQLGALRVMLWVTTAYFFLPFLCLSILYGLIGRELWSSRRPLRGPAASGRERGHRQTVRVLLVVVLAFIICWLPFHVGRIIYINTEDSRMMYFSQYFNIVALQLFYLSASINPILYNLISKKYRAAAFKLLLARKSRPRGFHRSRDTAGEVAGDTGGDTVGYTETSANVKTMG
Chain of Neuronal acetylcholine receptor subunit alpha-4 (P43681 whole entry): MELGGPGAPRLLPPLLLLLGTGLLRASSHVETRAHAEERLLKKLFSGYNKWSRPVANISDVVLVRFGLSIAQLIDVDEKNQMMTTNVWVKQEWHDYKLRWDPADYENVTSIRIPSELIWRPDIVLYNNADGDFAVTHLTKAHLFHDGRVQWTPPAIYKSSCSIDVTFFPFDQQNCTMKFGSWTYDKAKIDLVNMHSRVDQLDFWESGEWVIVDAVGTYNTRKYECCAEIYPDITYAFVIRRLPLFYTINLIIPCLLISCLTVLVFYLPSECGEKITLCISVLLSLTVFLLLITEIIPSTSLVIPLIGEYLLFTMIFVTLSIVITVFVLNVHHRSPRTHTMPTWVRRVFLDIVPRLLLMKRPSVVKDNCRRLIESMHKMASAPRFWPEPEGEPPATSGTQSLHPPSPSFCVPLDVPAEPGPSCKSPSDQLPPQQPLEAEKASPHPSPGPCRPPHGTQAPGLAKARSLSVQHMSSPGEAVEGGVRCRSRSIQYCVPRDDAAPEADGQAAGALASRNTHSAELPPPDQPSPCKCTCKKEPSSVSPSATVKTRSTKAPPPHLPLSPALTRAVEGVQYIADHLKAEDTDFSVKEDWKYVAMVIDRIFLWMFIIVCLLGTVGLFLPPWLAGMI
Chain of Melanocortin receptor 3 (P41968 whole entry): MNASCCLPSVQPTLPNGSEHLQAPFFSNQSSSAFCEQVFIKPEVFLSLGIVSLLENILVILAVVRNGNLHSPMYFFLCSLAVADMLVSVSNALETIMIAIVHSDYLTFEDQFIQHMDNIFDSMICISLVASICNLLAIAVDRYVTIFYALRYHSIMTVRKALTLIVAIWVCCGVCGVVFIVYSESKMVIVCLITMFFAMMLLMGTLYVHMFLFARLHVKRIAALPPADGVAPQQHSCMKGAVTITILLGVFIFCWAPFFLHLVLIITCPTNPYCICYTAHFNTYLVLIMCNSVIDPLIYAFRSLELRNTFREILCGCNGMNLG
Chain of Beta-2 adrenergic receptor (P07550 whole entry): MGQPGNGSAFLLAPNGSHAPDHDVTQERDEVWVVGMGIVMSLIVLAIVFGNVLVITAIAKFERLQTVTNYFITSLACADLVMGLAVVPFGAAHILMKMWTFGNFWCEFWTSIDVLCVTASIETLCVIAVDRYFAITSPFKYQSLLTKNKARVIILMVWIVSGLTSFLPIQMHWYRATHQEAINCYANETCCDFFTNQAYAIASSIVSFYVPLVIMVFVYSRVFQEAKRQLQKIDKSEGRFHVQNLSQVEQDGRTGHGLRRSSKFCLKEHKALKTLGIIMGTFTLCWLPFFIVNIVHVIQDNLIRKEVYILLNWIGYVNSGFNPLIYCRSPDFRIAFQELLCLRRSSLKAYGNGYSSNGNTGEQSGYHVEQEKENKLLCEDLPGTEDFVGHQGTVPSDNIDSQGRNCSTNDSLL
Chain of Adenosine receptor A2a (P29274 whole entry): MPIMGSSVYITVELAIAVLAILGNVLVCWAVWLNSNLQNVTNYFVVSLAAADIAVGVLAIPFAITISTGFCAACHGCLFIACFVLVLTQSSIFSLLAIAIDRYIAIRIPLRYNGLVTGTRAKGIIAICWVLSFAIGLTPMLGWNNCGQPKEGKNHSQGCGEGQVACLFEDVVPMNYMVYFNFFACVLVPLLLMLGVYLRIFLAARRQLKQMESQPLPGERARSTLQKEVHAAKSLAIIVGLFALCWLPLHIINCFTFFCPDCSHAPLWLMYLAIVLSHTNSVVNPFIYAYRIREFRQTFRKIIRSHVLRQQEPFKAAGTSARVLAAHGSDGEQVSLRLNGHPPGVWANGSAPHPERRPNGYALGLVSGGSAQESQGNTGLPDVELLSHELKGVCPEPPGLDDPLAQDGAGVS

A word on the AC50: it is the concentration giving half of the maximal activity seen. Regarding `COc1ccc(/C=C/C(=O)Nc2ccccc2C(=O)O)cc1OC`, the AC50 (at Adenosine receptor A2a; in test [1]; on B2 bradykinin receptor; in test [2]; on Endothelin-1 receptor; on Melanocortin receptor 3) was above 30 µM in each case. The AC50 (at Motilin receptor; on Glucocorticoid receptor; in test [3]; at Thromboxane A2 receptor; in test [4]) was above 30 µM throughout.
On to `NCCCC(O)(P(=O)(O)O)P(=O)(O)O` [ALENDRONIC ACID], for which the AC50 on Adenosine receptor A2a is above 30 µM; in test [1], above 10 µM; on B2 bradykinin receptor, above 30 µM; in [2] it was above 10 µM; at Endothelin-1 receptor it was above 30 µM; at Melanocortin receptor 3, above 30 µM. Further, the AC50 was above 10 µM on Motilin receptor; above 30 µM on Glucocorticoid receptor; above 10 µM in test [3]; above 30 µM at Thromboxane A2 receptor; above 10 µM in test [4].
Consider `COc1cc(OC)c(C(=O)CCCN2CCCC2)c(OC)c1` [BUFLOMEDIL], for which the AC50 (on Adenosine receptor A2a; in [1]; on B2 bradykinin receptor; in [2]; at Endothelin-1 receptor; at Melanocortin receptor 3) was above 30 µM in each case. The AC50 (at Motilin receptor; on Glucocorticoid receptor; in test [3]; at Thromboxane A2 receptor; in test [4]) was above 30 µM in each case.
`CCCCCCNC(=O)n1cc(F)c(=O)[nH]c1=O` [CARMOFUR]: the AC50 (at Adenosine receptor A2a; in test [1]; on B2 bradykinin receptor; in test [2]; on Endothelin-1 receptor; at Melanocortin receptor 3) was above 30 µM each time. For the same molecule, the AC50 (on Motilin receptor; on Glucocorticoid receptor; in test [3]; on Thromboxane A2 receptor; in [4]) was above 30 µM throughout.
On to `COc1cccc2c1C(=O)c1c(O)c3c(c(O)c1C2=O)C[C@@](O)(C(C)=O)C[C@@H]3O[C@H]1C[C@H](N)[C@H](O)[C@H](C)O1` [DAUNORUBICIN], for which the half-maximal activity concentration (AC50) was 30 µM at Adenosine receptor A2a; above 30 µM in test [1]; above 10 µM on B2 bradykinin receptor; 10.8 µM in [2]; above 30 µM at Endothelin-1 receptor; 29 µM at Melanocortin receptor 3. For the same molecule, the AC50 was above 30 µM at Motilin receptor; 0.11 µM on Glucocorticoid receptor; 16.2 µM in [3]; 25 µM at Thromboxane A2 receptor; above 30 µM in test [4].
As for `CC(=O)OCC(CCn1cnc2cnc(N)nc21)COC(C)=O` [FAMCICLOVIR], the AC50 on Adenosine receptor A2a was above 30 µM; in test [1], above 10 µM; on B2 bradykinin receptor it was above 30 µM; in test [2], above 10 µM; on Endothelin-1 receptor it was above 30 µM; at Melanocortin receptor 3, above 30 µM. Also, the AC50 on Motilin receptor was above 10 µM; on Glucocorticoid receptor it was above 30 µM; in test [3], above 30 µM; on Thromboxane A2 receptor it was above 30 µM; in test [4], above 10 µM.
In the case of `COC1=C(OC)C(=O)C(CCCCCCCCCCO)=C(C)C1=O` [IDEBENONE], the AC50 on Adenosine receptor A2a is above 30 µM; in test [1] it was above 10 µM; at B2 bradykinin receptor it was above 30 µM; in [2], above 10 µM; on Endothelin-1 receptor, above 30 µM; at Melanocortin receptor 3 it was above 30 µM. For the same molecule, the AC50 was above 10 µM on Motilin receptor; above 30 µM on Glucocorticoid receptor; above 10 µM in test [3]; 31.2 µM at Thromboxane A2 receptor; 8.5 µM in test [4].
As for `Nc1nc2c(c(=O)[nH]1)N(C=O)C(CNc1ccc(C(=O)N[C@@H](CCC(=O)O)C(=O)O)cc1)CN2` (stereo not given in full) [LEUCOVORIN], the AC50 (at Adenosine receptor A2a; in test [1]; at B2 bradykinin receptor; in test [2]; at Endothelin-1 receptor; on Melanocortin receptor 3) was above 30 µM throughout. For the same molecule, the AC50 (on Motilin receptor; at Glucocorticoid receptor; in [3]; at Thromboxane A2 receptor; in test [4]) was above 30 µM throughout.
In the case of `CC(C)CC(N(C)C)C1(c2ccc(Cl)cc2)CCC1` (stereo not given) [SIBUTRAMINE], the AC50 was above 30 µM at Adenosine receptor A2a; above 10 µM in test [1]; above 30 µM at B2 bradykinin receptor; above 10 µM in test [2]; above 30 µM on Endothelin-1 receptor; above 30 µM on Melanocortin receptor 3. In addition, the AC50 on Motilin receptor was above 10 µM; at Glucocorticoid receptor it was above 30 µM; in [3] it was above 30 µM; at Thromboxane A2 receptor, above 30 µM; in test [4], above 10 µM.
For the molecule `[H]/N=C(/N)N[C@H]1[C@H](O)[C@@H](O)[C@H](O[C@@H]2O[C@@H](C)[C@](O)(C=O)[C@H]2O[C@@H]2O[C@@H](CO)[C@H](O)[C@@H](O)[C@@H]2NC)[C@@H](N/C(N)=N\[H])[C@@H]1O` [STREPTOMYCIN], the AC50 (at Adenosine receptor A2a; in [1]; at B2 bradykinin receptor; in test [2]; at Endothelin-1 receptor; at Melanocortin receptor 3) was above 30 µM throughout. Besides, the AC50 (on Motilin receptor; at Glucocorticoid receptor; in test [3]; at Thromboxane A2 receptor; in [4]) was above 30 µM throughout.
Regarding `Cc1cccc(N(C)C(=S)Oc2ccc3ccccc3c2)c1` [TOLNAFTATE], the AC50 (on Adenosine receptor A2a; in [1]; at B2 bradykinin receptor; in test [2]; on Melanocortin receptor 3; on Motilin receptor) was above 10 µM throughout. For the same molecule, the half-maximal activity concentration (AC50) was above 30 µM at Glucocorticoid receptor, above 30 µM in test [3], above 10 µM at Thromboxane A2 receptor and above 30 µM in [4].
